Results on twelve compounds are retold here after the supplement of paper PMC4862054.

Assay [1] relates to MDA-MB-453. The conditions noted are these: 72 h. The method in brief: (§1)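 Plates of 384 wells holding compound in 5 µl medium received breast cancer cell lines in 20 µl suspension and were incubated 72 h. CellTiter-Blue (2.5 µl, 2 h, 37 °C) was used for viability, read at 560/590 nm, and every plate was normalised to vehicle and a positive kill control and assessed by Z'-factor. The EC50 derives from a percent-inhibition dose-response curve fit censored at the highest concentration, leaving out rows whose drug sensitivity score was zero.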

Assay [2] concerns CAL-85-1. Kind of assay: drug sensitivity score (DSS), CellTiter-Glo (DSS (AUC-based score)); higher = stronger drug effect (viability inhibition or cytotoxicity); extreme values may be limits of the assay. The conditions noted are these: incubation time: 72 h. The method in brief:
(§2)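 Plates with 384 wells held compound at 5 concentrations in 10-fold steps over a 10,000-fold range specific to each compound. Breast cancer cell lines were added in 20 µl suspension and incubated 72 h, then read for CellTox Green and CellTiter-Glo signals, with each plate normalised to 0.1 % DMSO and a positive kill control. The drug sensitivity score is based on the area under the fitted dose-response curve.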

Assay [3] concerns HCC1599. The assay is described as above. The conditions noted are these: incubation time: 72 h. In short, it runs like this:
as §2

For assay [4], the system named is CAL-51. The conditions noted are these: 72 h. The method in brief:
as §1

The subject of assay [5] is DU-4475. The following applies: 72 h. In short, it runs like this:
as §1

Assay [6] relates to CAL-85-1. The conditions noted are these: 72 h. In short, it runs like this: as §1
Assay [7] relates to HDQ-P1. The conditions noted are these: 72 h. The method in brief:
as §1

For assay [8], the system named is CAL-85-1. As to the kind of experiment: normalised viability (% of control), CellTiter-Blue; higher = more viable cells (about 100 = DMSO control). The following applies: incubation time: 72 h. The protocol:
(§3)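 DSRT, CellTiter-Blue viability, 72 h incubation. Signal is normalised to DMSO and benzethonium chloride controls. Value is the normalised response at dose 7.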

Assay [9] concerns CAL-148. Described as above. The conditions noted are these: incubation time: 72 h. On the procedure: as §3
For assay [10], the system named is MDA-MB-453. The description is as above. The following applies: incubation time: 72 h. On the procedure: as §3
Assay [11] concerns CAL-51. The assay is described as above. The following applies: incubation time: 72 h. The protocol:
as §3

Assay [12] deals with DU-4475. The assay is described as above. The following applies: incubation time: 72 h. On the procedure:
as §3

The test system of assay [13] is HDQ-P1. The assay is described as above. The following applies: incubation time: 72 h. The protocol: as §3
Assay [14] concerns MDA-MB-231. Kind of assay: normalised response (% of control), CellTiter-Glo; higher = more viable cells (100 = DMSO, 0 = benzethonium chloride kill control). The following applies: incubation time: 72 h. The method in brief: (§4)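 After 72 h with compound in 384-well plates, breast cancer cell lines seeded as 20 µl suspension were read for CellTox Green fluorescence at 485/520 nm. CellTiter-Glo luminescence was then read after 10 min at room temperature. Compound was present at 5 concentrations in 10-fold steps over a 10,000-fold range set per compound, and plates were normalised to 0.1 % DMSO (100) and a positive kill control (0). Values are normalised signals, each at a single concentration.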

Assay [15] concerns CAL-85-1. Described as above. The following applies: incubation time: 72 h. The method in brief: as §4
Assay [16] relates to HCC1143. Described as above. The following applies: incubation time: 72 h. The method in brief:
as §4

Assay [17] has as its system MCF-10A. Described as above. The conditions noted are these: incubation time: 72 h. In short, it runs like this: as §4
Assay [18] relates to CAL-148. The assay is described as above. The conditions noted are these: incubation time: 72 h. The method in brief: as §4
For assay [19], the system named is MFM-223. The assay is described as above. The conditions noted are these: incubation time: 72 h. The method in brief:
as §4

The subject of assay [20] is CAL-120. Described as above. The following applies: incubation time: 72 h. The method in brief: as §4
In assay [21] the test system is BT-474. Described as above. The conditions noted are these: incubation time: 72 h. In short, it runs like this: as §4
Assay [22] deals with HCC1599. The assay is described as above. The conditions noted are these: incubation time: 72 h. In short, it runs like this:
as §4

In assay [23] the test system is Hs578T. The description is as above. The conditions noted are these: incubation time: 72 h. In short, it runs like this:
as §4

For assay [24], the system named is DU-4475. Described as above. The following applies: incubation time: 72 h. In short, it runs like this: as §4
For assay [25], the system named is HDQ-P1. The assay is described as above. The conditions noted are these: incubation time: 72 h. In short, it runs like this:
as §4

Assay [26] relates to MDA-MB-468. The description is as above. The following applies: incubation time: 72 h. In short, it runs like this: as §4
Assay [27] deals with HCC1937. Described as above. The conditions noted are these: incubation time: 72 h. The method in brief:
as §4

The test system of assay [28] is BT-549. The description is as above. The following applies: incubation time: 72 h. The method in brief: as §4
In assay [29] the test system is CAL-148. The following applies: 72 h. The method in brief:
as §1

Take `CCOc1cc2ncc(C#N)c(Nc3ccc(OCc4ccccn4)c(Cl)c3)c2cc1NC(=O)/C=C/CN(C)C` [Neratinib]: the “EC50, CellTiter-Blue viability” value in assay [1] came to 12.5 nM. Also, the drug sensitivity score in assay [2] was determined as 7.08; in [3], 0.
Consider `COc1ccc(C2=N[C@@H](c3ccc(Cl)cc3)[C@@H](c3ccc(Cl)cc3)N2C(=O)N2CCNC(=O)C2)c(OC(C)C)c1` [Nutlin-3], for which the “EC50, CellTiter-Blue viability” value in assay [4] is 2750 nM; in [5] it was 6310 nM. Also, the drug sensitivity score in [2] and in [3] was 0 in each case.
Consider `Cn1c(=O)c(F)c(Nc2ccc(I)cc2F)c2c(=O)n(C[C@@H](O)CO)cnc21` [TAK-733], for which the “EC50, CellTiter-Blue viability” value came out at 68.5 nM in assay [6]; 249 nM in assay [1]; 102 nM in [4]; 3.59 nM in assay [5]; 161 nM in [7]. Moreover, the drug sensitivity score in assay [2] was 6.4; in assay [3], 0.
For `CS(=O)(=O)CCNCc1ccc(-c2ccc3ncnc(Nc4ccc(OCc5cccc(F)c5)c(Cl)c4)c3c2)o1` [Lapatinib], the entries for the “EC50, CellTiter-Blue viability” value in [6] and in assay [1] were 3740 nM and 75.1 nM, respectively. In addition, the drug sensitivity score in assay [2] is 1.7; in assay [3], 0.
Consider `O=C(c1ccc(OCCN2CCCCC2)cc1)c1c(-c2ccc(O)cc2)sc2cc(O)ccc12` [Raloxifene], for which, in [1], the “EC50, CellTiter-Blue viability” value was found to be 9230 nM. The drug sensitivity score in assay [2] is 1.62; in [3], 1.37.
Consider `CCS(=O)(=O)c1cccc(-c2cc(C(=O)NC3CCN(C)CC3)c(C)c3[nH]c4ncc(C)cc4c23)c1` [TAK-901], for which the “EC50, CellTiter-Blue viability” value was determined as 344 nM in assay [6]; 12.8 nM in assay [1]; 179 nM in [4]; 806 nM in assay [5]; 260 nM in assay [7]. In addition, the drug sensitivity score in assay [2] and in [3] was 0 each time.
Turning to `COC1=C2C[C@@H](C)C[C@H](OC)[C@H](O)[C@@H](C)/C=C(\C)[C@H](OC(N)=O)[C@@H](OC)/C=C\C=C(/C)C(=O)NC(=CC1=O)C2=O` [Geldanamycin] (1000 nM), the normalised viability was found to be 23.7% in assay [8]; 14.5% in [9]; 7.25% in [10]; 26.2% in assay [11]; 0.05% in assay [12]; 17.8% in assay [13]. Also, the normalised response in assay [14] is 97.9%; in [15] it was 92.7%; in assay [16] it was 102%; in assay [17], 99.7%; in assay [18] it was 106%; in assay [19], 40.4%. Further, the normalised response in assay [20] was found to be 102%; in assay [21], 101%; in assay [22], 99.6%; in [23], 103%; in assay [24], 91.4%; in assay [25] it was 97.2%. Further, the normalised response in [26] came to 104%; in assay [27], 89.8%; in assay [28], 81.2%.
For the compound `O=c1[nH]c(=O)n([C@H]2C[C@H](O)[C@@H](CO)O2)cc1F` [Floxuridine] (1000 nM), the normalised viability in assay [8] was 53.1%; in assay [9], 50.6%; in assay [10] it was 81.9%; in assay [11], 31.9%; in [12], 91.6%; in assay [13], 86.5%. Further, the normalised response came to 76.8% in [14]; 42.7% in [15]; 94.3% in [16]; 106% in assay [17]; 92.4% in assay [18]; 104% in assay [19]. Further, the normalised response is 39.8% in assay [20]; 67.1% in [21]; 67.7% in assay [22]; 13.5% in assay [23]; 92.8% in assay [24]; 83.9% in [25]. The normalised response in assay [26] came out at 69.4%; in assay [27], 56.4%; in [28], 85.4%.
In the case of `O=c1[nH]c(=O)n([C@H]2C[C@H](O)[C@@H](CO)O2)cc1F` [Floxuridine], the “EC50, CellTiter-Blue viability” value is 66.3 nM in assay [6], 19.8 nM in assay [29], 5880 nM in assay [1] and 46.9 nM in assay [4]. Moreover, the drug sensitivity score was found to be 17.5 in [2] and 9.95 in assay [3].
For `C[C@@]1(C(=O)Nc2ccc(F)nc2)CCCN1c1nc(Nc2cc(C3CC3)n[nH]2)c2cccn2n1` (1000 nM), the normalised viability came to 49.4% in [8]; 79.6% in [9]; 56.6% in assay [10]; 63.4% in [11]; 78.6% in [12]; 32.3% in assay [13]. Further, the normalised response is 62.4% in assay [14]; 57.6% in assay [15]; 71.5% in assay [16]; 20.4% in assay [17]; 84.9% in assay [18]; 58.1% in assay [19]. The normalised response in assay [20] came out at 59.3%; in [21], 62.8%; in assay [22], 72.8%; in [23] it was 86.5%; in [24] it was 80.4%; in assay [25], 46.7%. The normalised response in assay [26] stood at 21.4%; in assay [27], 86.9%; in assay [28], 61.4%.
With `COc1cccc2c1C(=O)c1c(O)c3c(c(O)c1C2=O)C[C@@](O)(C(C)=O)C[C@@H]3O[C@H]1C[C@H](N)[C@H](O)[C@H](C)O1` [Daunorubicin] (100 nM), the normalised viability came out at 77.2% in assay [8]; 30.8% in assay [9]; 94.8% in assay [10]; 38% in assay [11]; 41.7% in assay [12]; 94.9% in [13]. The normalised response in assay [14] is 88.7%; in assay [15] it was 97.5%; in assay [16] it was 95.8%; in assay [17], 103%; in [18], 64.8%; in assay [19], 115%. Besides, the normalised response was 93.1% in [20]; 82.5% in assay [21]; 103% in assay [22]; 92.6% in assay [23]; 86.9% in assay [24]; 91.8% in assay [25]. In addition, the figures for the normalised response in [26], in assay [27] and in assay [28] were 54.9%, 98.2% and 68.9%, respectively.
In the case of `O=c1[nH]cc(F)c(=O)[nH]1` [Fluorouracil], the “EC50, CellTiter-Blue viability” value in assay [6] is 680 nM; in assay [29] it was 944 nM; in assay [1], 3900 nM; in assay [4], 5390 nM; in assay [5], 2570 nM. The drug sensitivity score in [2] came to 8.63; in assay [3], 0.
